From US10323037B2, “Aminopyridazinone compounds as protein kinase inhibitors” (Jiangsu Hengrui Medicine Co., Ltd., priority 2014, dated 2019) come the findings set out here.

One may read the IC50 as the concentration at which inhibition is half-maximal.

Bounds are passed on as bounds.

In this assay the test system is TMD-8 cells. Briefly: Cell proliferation assay (CellTiter-Glo), TMD-8. It counts as cell-based. Particulars: Homo sapiens, TMD8, 120 h; 5-day treatment; read-out: TMD8 cells growth IC50. As for the experimental part:
Cell proliferation assay: TMD-8 and SU-DHL-1 cells were maintained at 37° C. in a humidified atmosphere with 5% CO2 in the recommended medium and serum concentrations. For cell proliferation assay, cells were seeded in 96-well pates at a density of 5,000 to 10,000 cells per well and cultured overnight at 37° C. in recommended medium supplemented with 5-10% FBS. On the next day, the test articles at various concentrations or vehicle control (0.5% DMSO) were added into cell culture. After 5-day treatment, the growth of cells was assayed by the CellTiter-Glo® Luminestceaent Cell Viability Assay (Promega). IC50 values were calculated using GraphPad Prism by plotting the logarithm of the concentration versus percent inhibition of cell growth as compared with the vehicle control.
(In general: Cellular ATP, detected with luciferase, serves as a proxy for viable cell number.)
Turning to `C=CC(=O)N1CCC[C@@H](n2cc(-c3ccc(Oc4ccccc4)cc3)c3c(N)n[nH]c(=O)c32)C1` [Example 1, (R)-1-(1-acryloylpiperidin-3-yl)-4-amino-3-(4-phenoxyphenyl)-1H-pyrrolo[2,3-d]pyridazin-7(6H)-one], the IC50 is ≤ 10 nM. Turning to `C=CC(=O)N1CC[C@H](n2cc(-c3ccc(Oc4ccccc4)cc3)c3c(N)n[nH]c(=O)c32)C1` [Example 3, 4-amino-3-(4-phenoxyphenyl)-1-[(3S)-1-prop-2-enoylpyrrolidin-3-yl]-6H-pyrrolo[2,3-d]pyridazin-7-one], the IC50 fell in the range of 10 to 1000 nM. To `C=CC(=O)N1CC[C@@H](n2cc(-c3ccc(Oc4ccccc4)cc3)c3c(N)n[nH]c(=O)c32)C1` [Example 4, 4-amino-3-(4-phenoxyphenyl)-1-[(3R)-1-prop-2-enoylpyrrolidin-3-yl]-6H-pyrrolo[2,3-d]pyridazin-7-one] belongs 10 to 1000 nM.

On to `C=CC(=O)N1CC(n2cc(-c3ccc(Oc4ccccc4)cc3)c3c(N)n[nH]c(=O)c32)C1` [Example 5, 4-amino-3-(4-phenoxyphenyl)-1-(1-prop-2-enoylazetidin-3-yl)-6H-pyrrolo[2,3-d]pyridazin-7-one], for which the IC50 lay in the range of 10 to 1000 nM. For `C=CC(=O)N1CCC[C@H]1Cn1cc(-c2ccc(Oc3ccccc3)cc2)c2c(N)n[nH]c(=O)c21` [Example 6, 4-amino-3-(4-phenoxyphenyl)-1-[[(2S)-1-prop-2-enoylpyrrolidin-2-yl]methyl]-6H-pyrrolo[2,3-d]pyridazin-7-one], the IC50 was ≤ 10 nM. In the case of `C=CC(=O)N1CCC(Cn2cc(-c3ccc(Oc4ccccc4)cc3)c3c(N)n[nH]c(=O)c32)C1` (centres unmarked) [Example 8, 4-amino-3-(4-phenoxyphenyl)-1-[(1-prop-2-enoylpyrrolidin-3-yl)methyl]-6H-pyrrolo[2,3-d]pyridazin-7-one], the IC50 lay within 10 to 1000 nM.

For the compound `C=CC(=O)N1CCC(Cn2cc(-c3ccc(Oc4ccccc4)cc3)c3c(N)n[nH]c(=O)c32)CC1` [Example 10, 4-amino-3-(4-phenoxyphenyl)-1-[(1-prop-2-enoyl-4-piperidyl)methyl]-6H-pyrrolo[2,3-d]pyridazin-7-one], the IC50 is 10 to 1000 nM. To `C=CC(=O)N1CC(Cn2cc(-c3ccc(Oc4ccccc4)cc3)c3c(N)n[nH]c(=O)c32)C1` [Example 12, 4-amino-3-(4-phenoxyphenyl)-1-[(1-prop-2-enoylazetidin-3-yl)methyl]-6H-pyrrolo[2,3-d]pyridazin-7-one] belongs ≤ 10 nM. Regarding `C=CC(=O)N1CCC(F)C(n2cc(-c3ccc(Oc4ccccc4)cc3)c3c(N)n[nH]c(=O)c32)C1` (centres unmarked) [Example 13, 1-(1-acryloyl-4-fluoropiperidin-3-yl)-4-amino-3-(4-phenoxyphenyl)-1H-pyrrolo[2,3-d]pyridazin-7(6H)-one], the concentration for half-maximal inhibition (IC50) is ≤ 10 nM. Consider `C=CC(=O)N1C[C@H](n2cc(-c3ccc(Oc4ccccc4)cc3)c3c(N)n[nH]c(=O)c32)CC(F)(F)C1` [Example 14, (R)-1-(1-acryloyl-5,5-difluoropiperidin-3-yl)-4-amino-3-(4-phenoxyphenyl)-1H-pyrrolo[2,3-d]pyridazin-7(6H)-one], for which the IC50 was ≤ 10 nM.

Turning to `C=CC(=O)NC1C2CCC1CC(n1cc(-c3ccc(Oc4ccccc4)cc3)c3c(N)n[nH]c(=O)c31)C2` (centres unmarked) [Example 15, N-(3-(4-amino-7-oxo-3-(4-phenoxyphenyl)-6,7-dihydro-1H-pyrrolo[2,3-d]pyridazin-1-yl)bicyclo[3.2.1]octan-8-yl)acrylamide], the IC50 was ≤ 10 nM.

With `CC(C)N(C)C/C=C/C(=O)N1CCC[C@@H](n2cc(-c3ccc(Oc4ccccc4)cc3)c3c(N)n[nH]c(=O)c32)C1` [Example 16, 4-amino-1-[(3R)-1-[(E)-4-[isopropyl(methyl)amino]but-2-enoyl]-3-piperidyl]-3-(4-phenoxyphenyl)-6H-pyrrolo[2,3-d]pyridazin-7-one], the IC50 lay within 10 to 1000 nM. Turning to `CN(C/C=C/C(=O)N1CCC[C@@H](n2cc(-c3ccc(Oc4ccccc4)cc3)c3c(N)n[nH]c(=O)c32)C1)C(=O)OC(C)(C)C` [Example 17], the IC50 lay in the range of 10 to 1000 nM. Turning to `CNC/C=C/C(=O)N1CCC[C@@H](n2cc(-c3ccc(Oc4ccccc4)cc3)c3c(N)n[nH]c(=O)c32)C1` [Example 18, 4-amino-1-[(3R)-1-[(E)-4-(methylamino)but-2-enoyl]-3-piperidyl]-3-(4-phenoxyphenyl)-6H-pyrrolo[2,3-d]pyridazin-7-one], the IC50 was ≤ 10 nM.

As for `CCC(=O)N1CCCC(n2cc(-c3ccc(Oc4ccccc4)cc3)c3c(N)n[nH]c(=O)c32)C1` (centres unmarked) [Example 19, 4-amino-3-(4-phenoxyphenyl)-1-(1-propionylpiperidin-3-yl)-1H-pyrrolo[2,3-d]pyridazin-7(6H)-one], the IC50 was in the range of 10 to 1000 nM. Consider `N#CN1CCC[C@@H](n2cc(-c3ccc(Oc4ccccc4)cc3)c3c(N)n[nH]c(=O)c32)C1` [Example 20, (R)-3-(4-amino-7-oxo-3-(4-phenoxyphenyl)-6,7-dihydro-1H-pyrrolo[2,3-d]pyridazin-1-yl)piperidine-1-carbonitrile], for which the IC50 is ≤ 10 nM.

As to `Nc1n[nH]c(=O)c2c1c(-c1ccc(Oc3ccccc3)cc1)cn2[C@@H]1CCCN(C(=O)CCl)C1` [Example 22, 4-amino-1-[(3R)-1-(2-chloroacetyl)-3-piperidyl]-3-(4-phenoxyphenyl)-6H-pyrrolo[2,3-d]pyridazin-7-one], the IC50 was in the range of 10 to 1000 nM. Regarding `Nc1n[nH]c(=O)c2c1c(-c1ccc(Oc3ccccc3)cc1)cn2[C@@H]1CCCN(C(=O)C2CC2)C1` [Example 23, 4-amino-1-[(3R)-1-(cyclopropanecarbonyl)-3-piperidyl]-3-(4-phenoxyphenyl)-6H-pyrrolo[2,3-d]pyridazin-7-one], the half-inhibitory concentration (IC50) was 10 to 1000 nM. To `N#CCC(=O)N1CCC[C@@H](n2cc(-c3ccc(Oc4ccccc4)cc3)c3c(N)n[nH]c(=O)c32)C1` [Example 24, 3-[(3R)-3-[4-amino-7-oxo-3-(4-phenoxyphenyl)-6H-pyrrolo[2,3-d]pyridazin-1-yl]-1-piperidyl]-3-oxo-propanenitrile] belongs 10 to 1000 nM; to `C/C=C/C(=O)N1CCC[C@@H](n2cc(-c3ccc(Oc4ccccc4)cc3)c3c(N)n[nH]c(=O)c32)C1` [Example 25, 4-amino-1-[(3R)-1-[(E)-but-2-enoyl]-3-piperidyl]-3-(4-phenoxyphenyl)-6H-pyrrolo[2,3-d]pyridazin-7-one], 10 to 1000 nM; to `CN(C)C/C=C/C(=O)N1CCC[C@@H](n2cc(-c3ccc(Oc4ccccc4)cc3)c3c(N)n[nH]c(=O)c32)C1` [Example 26, 4-amino-1-[(3R)-1-[(E)-4-(dimethylamino)but-2-enoyl]-3-piperidyl]-3-(4-phenoxyphenyl)-6H-pyrrolo[2,3-d]pyridazin-7-one], ≤ 10 nM.

`CCN(CC)C/C=C/C(=O)N1CCC[C@@H](n2cc(-c3ccc(Oc4ccccc4)cc3)c3c(N)n[nH]c(=O)c32)C1` [Example 27, 4-amino-1-[(3R)-1-[(E)-4-(diethylamino)but-2-enoyl]-3-piperidyl]-3-(4-phenoxyphenyl)-6H-pyrrolo[2,3-d]pyridazin-7-one]: the IC50 was ≤ 10 nM. Regarding `Nc1n[nH]c(=O)c2c1c(-c1ccc(Oc3ccccc3)cc1)cn2[C@@H]1CCCN(C(=O)/C=C/CNC2CC2)C1` [Example 28, 4-amino-1-[(3R)-1-[(E)-4-(cyclopropylamino)but-2-enoyl]-3-piperidyl]-3-(4-phenoxyphenyl)-6H-pyrrolo[2,3-d]pyridazin-7-one], the IC50 is ≤ 10 nM. Turning to `CN(C/C=C/C(=O)N1CCC[C@@H](n2cc(-c3ccc(Oc4ccccc4)cc3)c3c(N)n[nH]c(=O)c32)C1)C1CC1` [Example 29, 4-amino-1-[(3R)-1-[(E)-4-(cyclopropyl(methyl)amino)but-2-enoyl]-3-piperidyl]-3-(4-phenoxyphenyl)-6H-pyrrolo[2,3-d]pyridazin-7-one], the IC50 is ≤ 10 nM. For the compound `CCN(C/C=C/C(=O)N1CCC[C@@H](n2cc(-c3ccc(Oc4ccccc4)cc3)c3c(N)n[nH]c(=O)c32)C1)C1CC1` [Example 30, 4-amino-1-[(3R)-1-[(E)-4-[cyclopropyl(ethyl)amino]but-2-enoyl]-3-piperidyl]-3-(4-phenoxyphenyl)-6H-pyrrolo[2,3-d]pyridazin-7-one], the IC50 lay in the range of 10 to 1000 nM. Consider `CN(C/C=C/C(=O)N1CCC[C@@H](n2cc(-c3ccc(Oc4ccccc4)cc3)c3c(N)n[nH]c(=O)c32)C1)C1CCC1` [Example 31, 4-amino-1-[(3R)-1-[(E)-4-[cyclobutyl(methyl)amino]but-2-enoyl]-3-piperidyl]-3-(4-phenoxyphenyl)-6H-pyrrolo[2,3-d]pyridazin-7-one], for which the IC50 was 10 to 1000 nM. As for `Nc1n[nH]c(=O)c2c1c(-c1ccc(Oc3ccccc3)cc1)cn2[C@@H]1CCCN(C(=O)/C=C/CN2CCC2)C1` [Example 33, 4-amino-1-[(3R)-1-[(E)-4-(azetidin-1-yl)but-2-enoyl]-3-piperidyl]-3-(4-phenoxyphenyl)-6H-pyrrolo[2,3-d]pyridazin-7-one], the IC50 is ≤ 10 nM. To `Nc1n[nH]c(=O)c2c1c(-c1ccc(Oc3ccccc3)cc1)cn2[C@@H]1CCCN(C(=O)/C=C/CN2CCCC2)C1` [Example 34, 4-amino-3-(4-phenoxyphenyl)-1-[(3R)-1-[(E)-4-pyrrolidin-1-ylbut-2-enoyl]-3-piperidyl]-6H-pyrrolo[2,3-d]pyridazin-7-one] belongs ≤ 10 nM; to `Nc1n[nH]c(=O)c2c1c(-c1ccc(Oc3ccccc3)cc1)cn2[C@@H]1CCCN(C(=O)/C=C/CN2CCOCC2)C1` [Example 35, 4-amino-1-[(3R)-1-[(E)-4-morpholinobut-2-enoyl]-3-piperidyl]-3-(4-phenoxyphenyl)-6H-pyrrolo[2,3-d]pyridazin-7-one], ≤ 10 nM.
